How the values were obtained:
the bacteria tested = experiment: Seventh series: sterility examination after termination of the 72 hours trial; assay type: cell-based; conditions: sterility examination after the 72 hours trial
Source text: It can be observed that a nearly immediate effect occurs after inoculation.

Staphylococcus aureus = experiment: Second series: number of germs against prolonged time in 0.1% solutions; assay type: cell-based; conditions: 0.1% solution; for number of test organisms: Staphylococcus aureus
Experimental: (§1) Zinc and sodium hyaluronate solutions of […] (obtained by diluting solutions of 0.5% prepared according to Examples 1 and 2) were artificially infected by the identical germ count of various test organisms and the changing of the number of germs was taken against time. The number of germs was determined in a point of time by plating method. The evaluation was visually carried out at moulds and by using an automated colony counter at bacteria and fungi.
(§2) The effects of 0.1% zinc hyaluronate and sodium hyaluronate solutions, respectively on three distinguished test organisms are illustrated in Table 3.

Salmonella sp = experiment: as above; assay type: cell-based; conditions: 0.1% solution; for number of test organisms: Salmonella sp
Experimental: as §1, §2

Staphylococcus areus = experiment: Fifth series: MIC and CID by serial dilution; assay type: cell-based, Staphylococcus aureus; conditions: serial dilution from 0.2% solution
Experimental: (§3) The antibacterial effect of zinc hyaluronate associate can be characterized by the following values of the minimum inhibitory concentration (MIC) and microbicidal concentration (CID) in comparison to the corresponding values of sodium hyaluronate.
(§4) MIC and CID values were determined by using solutions of 0.2% concentration. The determinations were conducted in a known way: a serial dilution was prepared from the substances to be tested and these solutions were artificially infected by the corresponding dilutions of the selected test organisms. After incubation at a suitable temperature for an appropriate time, the concentration series was visually evaluated and the minimum concentration was determined, which inhibited the growth of microorganisms (MIC value), or induced the death of the microorganisms (CID value).

Pseudomonas aeruginosa [1] = experiment: Second series: number of germs against prolonged time in 0.1% solutions; assay type: cell-based; conditions: 0.1% solution
Experimental: as §1, §2

Pseudomonas aeruginosa [2] = experiment: Third series: effect of solutions of various concentrations on Pseudomonas aeruginosa; assay type: cell-based
Experimental: as §1
Due to the ophthalmological importance of Pseudomonas aeruginosa, the effects of zinc hyaluronate solutions of various concentrations on Pseudomonas aeruginosa were studied in comparison to sodium hyaluronate solutions of the same concentrations.

[3] = system: Helicobacter pylori strain 822/96; experiment: Eighth series: MIC on Helicobacter pylori, agar with 10% bovine blood; assay type: cell-based
Experimental: These investigations were carried out by using 1.0 weight/vol. % zinc hyaluronate solution on Helicobacter pylori strains cultivated from the gastric is biopsy samples of patients suffering from various ulcers. An 1% solution of De-Nol (colloidal bismuth subcitrate) was used as reference substance. Agar culture medium (nutrient medium) supplemented with 10% of bovine blood was used for the investigations. Plates without compound to be tested were used as controls. The inoculated plates were incubated for 3 to 5 days at 37° C. in a gaseous environment containing 5% of oxygen and 7 to 8% of carbon dioxide. The value of minimum inhibitory concentration (MIC) was considered to be the minimum concentration of substances totally inhibiting the propagation of bacteria well-growing on the control plates.

Escherichia coli = experiment: Fifth series: MIC and CID by serial dilution; assay type: cell-based; conditions: serial dilution from 0.2% solution
Experimental: as §3, §4

Salmonella = experiment: Fifth series: MIC and CID by serial dilution; assay type: cell-based; conditions: serial dilution from 0.2% solution
Experimental: as §3, §4

Streptococcus sp = experiment: Fifth series: MIC and CID by serial dilution; assay type: cell-based; conditions: serial dilution from 0.2% solution
Experimental: as §3, §4

cobalt(II) hyaluronate [cobalt hyaluronate]
character of the effect (static or bactericidal) (the bacteria tested): bactericidal effect

sodium hyaluronate [reference compound]
number of test organisms (Staphylococcus aureus; 0 hr): 1.3 × 10^6 Test-organism/ml
number of test organisms (Staphylococcus aureus; 24 hrs): 4.1 × 10^6 Test-organism/ml
number of test organisms (Staphylococcus aureus; 48 hrs): 6.2 × 10^6 Test-organism/ml
number of test organisms (Staphylococcus aureus; 72 hrs): 8.4 × 10^6 Test-organism/ml
course of the count over the test time (in words) (Staphylococcus aureus; Staphylococcus): remained practically within the same order
number of test organisms (Salmonella sp; 0 hr): 8.0 × 10^6 Test-organism/ml
number of test organisms (Salmonella sp; 24 hrs): 8.1 × 10^6 Test-organism/ml
number of test organisms (Salmonella sp; 48 hrs): 1.2 × 10^6 Test-organism/ml
number of test organisms (Salmonella sp; 72 hrs): 1.8 × 10^6 Test-organism/ml
course of the count over the test time (in words) (Salmonella sp; Salmonella): remained practically within the same order

zinc hyaluronate
CID (microbicidal concentration) (Staphylococcus areus): 120 µg/mL
MIC (minimum inhibitory concentration) (Staphylococcus areus): 40 µg/mL
number of test organisms (Staphylococcus aureus; 0 hr): 4.2 × 10^6 Test-organism/ml
number of test organisms (Staphylococcus aureus; 24 hrs): 4.6 × 10^6 Test-organism/ml
number of test organisms (Staphylococcus aureus; 48 hrs): 0 Test-organism/ml
number of test organisms (Staphylococcus aureus; 72 hrs): 0 Test-organism/ml
number of test organisms (Staphylococcus aureus; 96 hrs): 0 Test-organism/ml
number of test organisms (Staphylococcus aureus; 168 hrs): 0 Test-organism/ml
time until count reduced to zero (Staphylococcus aureus; Staphylococcus): ≤ 48 h
number of test organisms (Salmonella sp; 0 hr): 2.0 × 10^6 Test-organism/ml
number of test organisms (Salmonella sp; 24 hrs): 1.1 × 10^6 Test-organism/ml
number of test organisms (Salmonella sp; 48 hrs): 0 Test-organism/ml
number of test organisms (Salmonella sp; 72 hrs): 0 Test-organism/ml
number of test organisms (Salmonella sp; 96 hrs): 0 Test-organism/ml
number of test organisms (Salmonella sp; 168 hrs): 0 Test-organism/ml
time until count reduced to zero (Salmonella sp; Salmonella): ≤ 48 h
onset of effect (in words) (Pseudomonas aeruginosa [1]): significant decrease appeared only from the second day
number of test organisms (Pseudomonas aeruginosa [1]; 0 hr): 2.1 × 10^5 Test-organism/ml
number of test organisms (Pseudomonas aeruginosa [1]; 24 hrs): 2.4 × 10^4 Test-organism/ml
number of test organisms (Pseudomonas aeruginosa [1]; 48 hrs): 3.0 × 10^3 Test-organism/ml
number of test organisms (Pseudomonas aeruginosa [1]; 72 hrs): <100 Test-organism/ml
number of test organisms (Pseudomonas aeruginosa [1]; 96 hrs): <100 Test-organism/ml
number of test organisms (Pseudomonas aeruginosa [1]; 168 hrs): 0 Test-organism/ml
number of test organisms (Pseudomonas aeruginosa [2]; 0.1% solution, 0 hr): 5.5 × 10^5 Test-organism /ml
number of test organisms (Pseudomonas aeruginosa [2]; 0.1% solution, 24 hrs): 5.0 × 10^5 Test-organism /ml
number of test organisms (Pseudomonas aeruginosa [2]; 0.1% solution, 48 hrs): 2.0 × 10^3 Test-organism /ml
number of test organisms (Pseudomonas aeruginosa [2]; 0.1% solution, 72 hrs): <100 Test-organism /ml
number of test organisms (Pseudomonas aeruginosa [2]; 0.2% solution, 0 hr): 8.0 × 10^5 Test-organism /ml
number of test organisms (Pseudomonas aeruginosa [2]; 0.2% solution, 24 hrs): 5.5 × 10^5 Test-organism /ml
number of test organisms (Pseudomonas aeruginosa [2]; 0.2% solution, 48 hrs): 3.0 × 10^3 Test-organism /ml
number of test organisms (Pseudomonas aeruginosa [2]; 0.2% solution, 72 hrs): <100 Test-organism /ml
number of test organisms (Pseudomonas aeruginosa [2]; 0.5% solution, 0 hr): 1.0 × 10^6 Test-organism /ml
number of test organisms (Pseudomonas aeruginosa [2]; 0.5% solution, 24 hrs): 6.0 × 10^5 Test-organism /ml
number of test organisms (Pseudomonas aeruginosa [2]; 0.5% solution, 48 hrs): 3.0 × 10^3 Test-organism /ml
number of test organisms (Pseudomonas aeruginosa [2]; 0.5% solution, 72 hrs): <100 Test-organism /ml
activity compared (in words) (Pseudomonas aeruginosa [2]; Tables 4 and 5): obviously more effective than sodium hyaluronate solutions
in vitro activity compared (in words) ([3]; Helicobacter pylori): comparable to the activity of De-Nol
MIC ([3]; Helicobacter pylori strain 822/96, 3 to 5 days at 37° C., 5% oxygen, 7 to 8% carbon dioxide): 500 µg/mL
CID (microbicidal concentration) (Escherichia coli): 310 µg/mL
MIC (minimum inhibitory concentration) (Escherichia coli): 26 µg/mL
CID (microbicidal concentration) (Salmonella): 160 µg/mL
MIC (minimum inhibitory concentration) (Salmonella): 5.4 µg/mL
CID (microbicidal concentration) (Streptococcus sp): 400 µg/mL
MIC (minimum inhibitory concentration) (Streptococcus sp): 96 µg/mL
